From US4963570A, “1-(acetylaminophenyl)-2-aminopropanone derivatives and pharmaceutical compositions thereof” (Laboratoire L. Lafon, priority 1983, dated 1990)
Entries after “also recorded” stand apart in the source; their conditions may differ. Counter-ions that a name gives are not always drawn.

Assays:
mice [1] = experiment: action on the intergroup aggression; format: in vivo, mouse; conditions: i.p.
Description: After they have stayed for 3 weeks in the 2 halves of a cage divided by an opaque partition, groups of 3 mice receive CRL 41 224. Half an hour later, the two groups from the same cage are brought together by removal of the partition, and the number of fights which occur in 10 minutes is noted. Half the test is performed on ordinary mice (NMRI, C.E.R. January) and half on NMRI (Iffa Credo) mice.

rats [2] = experiment: interaction with apomorphine in rats; format: in vivo, rat; conditions: i.p., 16 and especially 64 mg/kg, apomorphine 0.5 mg/kg s.c.
Description: CRL 41 224 is administered to groups of 6 rats 0.5 hour before the subcutaneous injection of 0.5 mg/kg of apomorphine.

CNS = experiment: overall neuropsychopharmacological (CNS) profile; format: in vivo, mouse; rat; conditions: i.p.
Description: The neuropsychopharmacological study of CRL 41 219 was carried out as indicated above for CRL 41 224.
The neuropsychopharmacological study of CRL 41 220 was carried out in accordance with the procedures given above for CRL 41 224.

mice [3] = experiment: four plate test, traction and electric shock; format: in vivo, mouse; conditions: mice, i.p.
Description: The test is performed on groups of 10 mice 30 minutes after the administration of CRL 41 224.

rats [4] = experiment: interaction with amphetamine; format: in vivo, rat; conditions: rats, i.p., 16 and especially 64 mg/kg; amphetamine 2 mg/kg i.p.
Description: Amphetamine (2 mg/kg) is injected intraperitoneally into groups of 6 rats 30 minutes after the administration of CRL 41 224.

mice [5] = experiment: interaction with oxotremorine; format: in vivo, mouse
Description: CRL 41 224 is administered to groups of 6 mice 0.5 hour before the intraperitoneal injection of 0.5 mg/kg of oxotremorine.

mice [6] = experiment: motility reduced by hypoxic aggression; format: in vivo, mouse; conditions: i.p., 8, 32 and especially 128 mg/kg
Description: Half an hour after they have received CRL 41 224, the mice (10 per dose, 20 control animals) are subjected to acute hypobaric anoxia [pressure reduction of 600 mm Hg (i.e. about 8×10^4 Pa) in 90 seconds; release of vacuum in 45 seconds] and are then placed in an actimeter, where their motility is recorded for 10 minutes.

mice [7] = experiment: action on the spontaneous motility (actimeter); format: in vivo, mouse; conditions: mice, i.p.
Description: 0.5 hour after they have received CRL 41 224, the mice (6 per dose, 12 control animals) are placed in an actimeter, where their motility is recorded for 30 minutes.

mice [8] = experiment: interaction with reserpine; format: in vivo, mouse; conditions: mice, i.p.
Description: Four hours after the intraperitoneal injection of 2.5 mg/kg of reserpine, groups of 6 mice receive CRL 41 224.

rats [9] = experiment: overall behavior and reactivities in rats; format: in vivo, rat; conditions: i.p.
Description: (§1) Groups of three animals are observed before and then 0.25 hour, 0.50 hour, 1 hour, 2 hours, 3 hours and 24 hours after the administration of CRL 41 224.

mice [10] = experiment: interaction with barbital; format: in vivo, mouse; conditions: i.p.
Description: Half an hour after the administration of CRL 41 224, groups of 10 mice receive an intraperitoneal injection of barbital (220 mg/kg).

mice [11] = experiment: asphyxiant anoxia (gallamine triiodoethylate); format: in vivo, mouse; conditions: i.p.
Description: Groups of 10 mice receive CRL 41 224 half an hour before the intraperitoneal administration of 32 mg/kg of gallamine triiodoethylate (reference curarizing agent).

mice [12] = experiment: overall behavior and reactivities in mice; format: in vivo, mouse; conditions: i.p.
Description: as §1

mice [13] = experiment: interaction with apomorphine in mice; format: in vivo, mouse; conditions: mice, i.p., 8, 32 and 128 mg/kg; apomorphine 1 or 16 mg/kg s.c.
Description: Groups of 6 mice receive CRL 41 224 0.5 hour before the subcutaneous injection of 1 or 16 mg/kg of apomorphine.

[14] = tested on: peripheral α-adrenergic stimulation; experiment: signs of peripheral adrenergic stimulation; format: in vivo, mouse; rat; conditions: i.p.; dose not stated
Description: as §1

mice [15] = experiment: motility reduced by habituation to the enclosure; format: in vivo, mouse; conditions: i.p., 32 and 128 mg/kg
Description: After they have stayed in the actimeters for 18 hours, the mice (6 per dose, 12 control animals) receive CRL 41 224. They are immediately returned to their respective enclosures and, half an hour later, their motility is recorded for 30 minutes.

mice [16] = experiment: action on the behavioral despair; format: in vivo, mouse; conditions: i.p.
Description: Half an hour after they have received CRL 41 224, groups of 6 mice are placed in a beaker filled with water to a height of 6 cm. The total period of immobility between the 2nd and 6th minutes following immersion is noted.

male mice = experiment: acute toxicity, intraperitoneal (lethal doses); format: in vivo, mouse; conditions: i.p.
Description: By intraperitoneal administration to male mice, the LD-30 (lethal dose for 30% of the animals tested) is of the order of 128 mg/kg and the LD-50 is of the order of about 200 mg/kg.

immunological properties = experiment: immunological properties, overall; format: in vivo; conditions: dose not stated; dihydrochloride
Description: The present 1-(acetylaminophenyl)-2-aminopropanone derivatives are useful in therapy. They all act on the CNS, more precisely as antidepressants. They have a stimulant or excitant component in their neuropsychopharmacological profile.

[17] = pH of the aqueous solution as a function of concentration; format: physicochemical
Description: The neuropsychopharmacological study of CRL 41 242 was carried out according to the procedures described above for CRL 41 224, except that the pH of the aqueous solution of CRL 41 242 to be injected intraperitoneally varies as a function of the concentration in the manner indicated in Table III below.

CCNC(C)C(=O)c1ccc(NC(C)=O)cc1 (centres unmarked) [CRL 41 224, 1-(4-acetylaminophenyl)-2-ethylaminopropanone hydrochloride]
number of fights (mice [1]; 128 mg/kg): reduces the number of fights
stereotypies induced by apomorphine (rats [2]): potentiation of the stereotypies induced by apomorphine
overall action on the CNS (CNS; mice and rats, dose not stated, hydrochloride): antidepressant effects; also recorded: stimulant effects; also recorded: behaves as an antidepressant for the CNS
convulsant effects of electric shock (mice [3]; 128 mg/kg): does not aggravate the convulsant effects
lethal effects of electric shock (mice [3]; 128 mg/kg): does not modify the lethal effects of electric shock
motor incapacity (traction) (mice [3]; 128 mg/kg): does not cause major motor incapacity
number of punished passes (four plate test) (mice [3]; 128 mg/kg): increase in the number of punished passes
stereotypies induced by amphetamine (rats [4]): potentiation of the stereotypies induced by amphetamine
signs of peripheral cholinergic stimulation induced by oxotremorine (mice [5]; mice, i.p.): does not modify the signs of peripheral cholinergic stimulation
hypothermic action of oxotremorine (mice [5]; mice, i.p., 2, 8 and especially 32, 128 mg/kg, oxotremorine 0.5 mg/kg i.p.): opposes the hypothermic action of oxotremorine
trembling induced by oxotremorine (mice [5]; mice, i.p., 8, 32 and especially 128 mg/kg): distinctly reduces the intensity of the trembling induced by oxotremorine
motor recovery after acute hypobaric anoxia (mice [6]): distinct improvement in the motor recovery
spontaneous motor activity (mice [7]; 8 and especially 32, 128 mg/kg): increases the spontaneous motor activity
ptosis induced by reserpine (mice [8]; 128 mg/kg): reduces the intensity of the ptosis induced by reserpine
significance of the antagonism of hypothermia induced by reserpine (mice [8]; 32 and 128 mg/kg): significant
hypothermia induced by reserpine (mice [8]; as from 2 mg/kg, reserpine 2.5 mg/kg i.p.): opposes the hypothermia induced by reserpine
mydriasis (rats [9]; 1 mg/kg): brief mydriasis
mydriasis, time of appearance after administration (rats [9]; 1 mg/kg): 0.5 h
mydriasis, duration (rats [9]; 4 mg/kg): 2 h
mydriasis, duration (rats [9]; 16 mg/kg): 3 h
stereotypies, duration (rats [9]; 16 mg/kg): 3 h
excitation, duration (rats [9]; 64 mg/kg): 1 h
hyperthermia, duration (rats [9]; 64 mg/kg): 3 h
hyperthermia, temperature change (rats [9]; 64 mg/kg): +1.5 °C
increase in the reactivity to touch and muscular tonus, duration (rats [9]; 64 mg/kg): 3 h
mydriasis, duration (rats [9]; 64 mg/kg): 3 h
piloerection, duration (rats [9]; 64 mg/kg): 1 h
stereotypies, duration (rats [9]; 64 mg/kg): 3 h
antagonism of the sleep induced by barbital (mice [10]; mice, 32 mg/kg): total antagonism
duration of the sleep induced by barbital (mice [10]; mice, as from 2 mg/kg, barbital 220 mg/kg i.p.): reduces the duration of the sleep induced by barbital
time taken for convulsions and death to occur following asphyxiant anoxia (mice [11]; mice, gallamine triiodoethylate 32 mg/kg i.p.): does not change the time taken for convulsions and death to occur
excitation, duration (mice [12]; mice, 32 mg/kg): 3 h
excitation, duration (mice [12]; mice, 128 mg/kg): 3 h
hyperthermia, temperature change (mice [12]; mice, 128 mg/kg): +0.9 °C
increase in the reactivity to touch and muscular tonus, duration (mice [12]; mice, 128 mg/kg): 24 h
moderate mydriasis, duration (mice [12]; mice, 128 mg/kg): 3 h
forms of behavior, reactivities and variations in pupil diameter and rectal temperature (mice [12]; mice, 2 and 8 mg/kg): substantially comparable to those of the control group
hypothermia induced by apomorphine (mice [13]): opposes the hypothermia induced by apomorphine
righting behavior and stereotypy behavior (apomorphine) (mice [13]): without modifying the righting behavior and stereotypy behavior
peripheral adrenergic stimulation, overall [14]: peripheral α-adrenergic stimulant effects
motor activity of mice accustomed to their enclosure (mice [15]): distinct resumption in the motor activity
period of immobility (forcibly immersed mice) (mice [16]; 8 and especially 32, 128 mg/kg): reduces the period of immobility

CC(=O)Nc1ccc(C(=O)C(C)N2CCN(C)CC2)cc1 (centres unmarked) [CRL 41 242, 1-(4-acetylaminophenyl)-2-(4-methylpiperazino)-propanone dihydrochloride]
intergroup aggression (mice [1]; high doses): a reduction in the intergroup aggression
overall action on the CNS (CNS; strong/high doses, dihydrochloride): sedative effects; also recorded: antidepressant effects
effects of the stimulant type (CNS; weak doses): very discreet effects of the stimulant type
number of punished passes in the four plate test (mice [3]; high doses): a decrease in the spontaneous motility and the number of punished passes
hypothermia induced by oxotremorine (mice [5]; i.p., strong/high doses): very moderate antagonism of the hypothermia induced by oxotremorine
LD-0 (maximum non-lethal dose) (male mice): greater than 256 mg/kg
LD-60 (male mice): about 500 mg/kg
spontaneous motility (mice [7]; high doses): a decrease in the spontaneous motility
immunological properties, overall (immunological properties): beneficial immunomodulating effects; also recorded: particularly valuable as an immunostimulant substance
sedation (rats [9]; high doses): sedation in mice and rats
duration of the sleep induced by barbital (mice [10]; strong/high doses): an increase in the duration of the sleep induced by barbital
time taken for asphyxiant convulsions (and death) to occur (mice [11]; high dose): an increase in the time taken for convulsions and death to occur following asphyxiant anoxia
reactivities (mice [12]; high doses): decrease in the reactivities
body temperature (hypothermia) (mice [12]; strong/high doses): hypothermia in mice
sedation (mice [12]; mice, high doses): sedation in mice
period of immobility of mice forcibly immersed (mice [16]; strong/high doses): a slight reduction in the period of immobility
pH of the aqueous solution ([17]; 0.2 g/liter): 5.0
pH of the aqueous solution ([17]; 0.4 g/liter): 4.5
pH of the aqueous solution ([17]; 0.8 g/liter): 4.0
pH of the aqueous solution ([17]; 2 g/liter): 3.5
pH of the aqueous solution ([17]; 13 g/liter): 3.0
pH of the aqueous solution ([17]; 50 g/liter): 2.5
pH of the aqueous solution ([17]; ≤0.05 g/liter): 5.5
